Data from patent publication US7323441B2, “Use of lupin conglutin for the treatment of type II diabetes” (Indena S.p.A., priority 2003, dated 2008).

System: glucose plasma levels
Experiment: Hypoglycemizing activity in rats after oral glucose administration (2 g/kg)
Type: in vivo, rat
Settings: 50 mg/kg os, 30 min before glucose 2 g/kg os; male CD rats; AUC 0 to 90 min; mean±M.S.E.
Protocol: Male CD strain rats, of the starting weight 275-300 g, were used. The animals were housed in makrolon cages in environment with automatic control of light (12 hour light/12 hour darkness cycles), temperature (21±1° C.) and humidity (60±5%).
Lupin conglutin gamma prepared as reported in Example 2 was used. 100 rats (divided into in 5 groups of […] animals each) were pre-treated (time−30 min) with: • Group 1: carrier (1% carboxymethylcellulose [CMC]; 2 ml/kg os) • Group 2: lupin conglutin gamma (50 mg/kg os in 1% CMC) • Group 3: lupin conglutin gamma (100 mg/kg os in 1% CMC) • Group 4: lupin conglutin gamma (200 mg/kg os in 1% CMC) • Group 5: metformin (50 mg/kg os in 1% CMC) […]
Immediately before the glucose administration (time 0 min) and 30, 60 and 90 min after the glucose administration, all the animals (n=5 rats for each time) were anaesthetized with sodium thiopental (50 mg/kg i.p.) and 5 ml of blood was drawn from the vena cava. Blood samples were collected in syringes containing EDTA (7.5 mM) as anticoagulant, and immediately subjected to centrifugation (2000 g×10 min at 4° C.) to obtain the plasma necessary for the enzymatic quantitation of glucose.
The quantitation of the glucose in rat plasma was carried out in triplicate by enzymatic assay (absorbance at 505 nm) and the glucose concentration was expressed in mg/dl. […]

SMILES: CN(C)C(=N)N=C(N)N [metformin]
- area under the curve (AUC) of glucose plasma levels: 1565±201
